In patent US20200399238A1, “THERAPEUTIC AURONES” (MIDDLE TENNESSEE STATE UNIVERSITY, priority 2016, published 2020):
Like-named read-outs stand apart in the source and are kept apart here.

Assays:
[1] = tested on: Leishmania amazonensis promastigotes expressing beta-lactamase; assay: microbe, parasite or virus in culture; format: cell-based; details: for IC50: Leishmania amazonensis
Protocol: Leishmania amazonensis promastigotes expressing beta-lactamase (Buckner et al., Am. J. Trop. Med. Hyg. 72 (2005) 600-605. doi:72/5/600 [pii]) were cultured in RPMI supplemented with 10% fetal calf serum and 1% pen-strep-glut solution (Sigma) at 27° C. Stationary phase promastigotes were adjusted in fresh media, treated with compounds, and incubated at 37° C. At 24 hours, 100 uL of cultures was added to 50 uL of the CellTiter Glo® solution. Luminescence readings were taken with a spectrophotometer and used to calculate inhibition.

[2] = tested on: Trypanosoma cruzi Tulahuen cells expressing beta-galactosidase; assay: T. cruzi intracellular assay (beta-galactosidase, L6 host cells); details: for IC50: Trypanosoma cruzi, TULAHUEN; for Selectivity L6/TC-I: Table 3A, estimated from highest L6 dose tested where no L6 IC50
Protocol: Trypanosoma cruzi Tulahuen cells expressing beta-galactosidase (Buckner et al., Antimicrob. Agents Chemother. 40 (1996) 2592-2597) were cultured using the L6 cell line as a host cell. Adherent L6 cultures were infected with freshly burst T. cruzi trypomastigotes. Approximately 4-6 days later freshly burst trypomastigotes were collected and used to maintain cultures For assays, trypomastigotes were centrifuged to a loose pellet and incubated for 3 hours to allow the trypomastigote forms to swim out of the pellet. Cells were adjusted for addition to intracellular or extracellular assays. […] For intracellular assays, cells were added to adherent L6 cells using an infection ratio of 1:1 and immediately treated with compounds. At 96 hours incubations, a solution containing chlorophenol-red-B-D-beta-galactopyranosidase (Sigma) and a lysis agent were added. After an additional 2 hour incubation, a spectrophotometer was used to quantify the resulting color change (or lack thereof) which was used to calculate inhibition.
The percentage of cell inhibition was calculated using the formula: Percent Inhibition=1−((Treated Sample value−Medium only value)/(Untreated value−Medium only value))×100. Results are expressed as the mean of two or more independent trials.

[3] = tested on: rat skeletal muscle cell line, L6; assay: cells; format: cell-based
Protocol: Cells were maintained in high glucose DMEM obtained from HyClone Laboratories (Logan, Utah) and supplemented with FCS and P/S at the same concentrations used for parasite culture. Cells were passaged every 3-4 days and maintained in a 37° C. humidified incubator in an atmosphere of 5% CO2. For assays. cells were detached, counted using a hemocytometer, and adjusted using fresh media to deliver 5×10^3 cells per well (90 μL) in black walled, flat clear bottom 96-well microtiter plates. After 3 h incubation for attachment, compounds diluted in culture medium were added (10 μL) to triplicate wells. Positive controls (cells treated with podophyllotoxin (Sigma, St. Louis, Mo.)), negative controls (untreated cells), solvent controls (DMSO) and media blanks were included on each plate. Following incubation for 71.5 h, 11 μL of PrestoBlue was added into each well.

[4] = tested on: Trypanosoma brucei brucei 427 cells; assay: T. brucei culture and assay (PrestoBlue); format: cell-based; details: for IC50: Trypanosoma brucei
[5] = read-out: IC50 T. cruzi, Table 1, intracellular assay, mean of 2(+) trials (^c one trial)
[6] = read-out: IC50 T. cruzi, Table 2, intracellular assay, mean of 2(+) independent trials
[7] = read-out: IC50 TC-I, Table 3B, weighted means of two or more independent trials
[8] = Rattus norvegicus, Table 1, read-out: IC50 Toxicity (L6)
[9] = Rattus norvegicus, Table 3B, weighted means of two or more independent trials, read-out: IC50 L6
[10] = Table 1, mean of 2(+) independent trials, read-out: IC50 T. brucei
[11] = Table 2, L6 IC50 / L. amazonensis IC50
[12] = Table 1, intracellular T. cruzi IC50
[13] = Table 2, L6 IC50 / T. cruzi IC50 (intracellular assay)
[14] = read-out: IC50 TC-I, Table 3A, weighted means of two or more independent trials
[15] = Rattus norvegicus, Table 3A, weighted means of two or more independent trials, read-out: IC50 L6
[16] = Table 2, L6 mammalian cells, read-out: IC50 Toxicity (L6)
[17] = Table 2, L6 IC50 / T. brucei IC50
[18] = Table 3A, estimated from highest L6 dose tested where no L6 IC50

O=C1/C(=C/c2cccs2)Oc2ccccc21 [Aurone 2004]
IC50 ([1]; read-out: IC50 L. amaz.): < 1 µM
IC50 [2, 5]: 13.7 µM
IC50 [2, 6]: 13.7 µM
IC50 [2, 7]: 13.7 µM
IC50 ([2]; read-out: T. cruzi IC50 dose): 13.7 µM
IC50 [3, 8]: > 100 µM
IC50 [3, 9]: > 100 µM
activity against T. brucei [4]: moderate activity
IC50 [4, 10]: 41.8 µM

O=C1/C(=C/c2ccc[nH]2)Oc2ccccc21 [Aurone 2021]
IC50 ([1]; read-out: IC50 L. amaz.): < 1 µM
IC50 [2, 5]: 14.6 µM
IC50 [2, 6]: 14.6 µM
IC50 [2, 7]: 14.6 µM
IC50 [3, 8]: 82.7 µM
IC50 [3, 9]: 82.7 µM
IC50 [4, 10]: 38.9 µM

CC(C)c1ccc(/C=C2\Oc3ccccc3C2=O)cc1 [Aurone 8002, (Z)-2-(4-isopropylbenzylidene)benzofuran-3(2H)-one]
IC50 ([1]; read-out: IC50 L. amaz.): 2.88 µM
IC50 ([1]; read-out: IC50 L. amaz. (footnote c: value obtained from one trial)): 2.88 µM
IC50 [2, 5]: 16.6 µM
IC50 [2, 6]: 16.6 µM
IC50 [3, 8]: 89 µM
IC50 [4, 10]: 43.4 µM

COc1ccc(/C=C2\Oc3cc(O)ccc3C2=O)cc1O [Aurone 2911, (Z)-6-hydroxy-2-(3-hydroxy-4-methoxybenzylidene)benzofuran-3(2H)-one]
IC50 ([1]; read-out: IC50 L. amaz.): 6.51 µM
IC50 [2, 5]: > 50 µM
IC50 [2, 6]: > 50 µM
IC50 [3, 8]: 52.6 µM
IC50 [4, 10]: > 50 µM

Cc1ccc(/C=C2\Oc3ccccc3C2=O)o1 [Aurone 9251]
IC50 ([1]; read-out: IC50 L. amaz.): 2.36 µM
IC50 [2, 5]: 3.57 µM
IC50 [2, 7]: 3.57 µM
IC50 [3, 8]: 85.5 µM
IC50 [3, 9]: 85.5 µM
IC50 [4, 10]: 35.3 µM

O=C1/C(=C/c2c[nH]c3ccccc23)Oc2ccccc21 [Aurone 9062, (Z)-2-((1H-indol-3-yl)methylene)benzofuran-3(2H)-one]
IC50 ([1]; read-out: IC50 L. amaz.): 1.66 µM
IC50 [2, 5]: 8.53 µM
IC50 [2, 6]: 8.53 µM
IC50 [2, 7]: 8.53 µM
IC50 ([2]; read-out: T. cruzi IC50 dose): < 10 µM
IC50 [3, 8]: 64.7 µM
IC50 [3, 9]: 64.7 µM
IC50 [4, 10]: 24.8 µM

COc1cc(OC)c2c(c1)O/C(=C\c1cccc([N+](=O)[O-])c1)C2=O [Aurone 7001]
IC50 ([1]; read-out: IC50 L. amaz.): 22 µM
IC50 [2, 5]: > 50 µM
IC50 [3, 8]: > 100 µM
IC50 [4, 10]: > 50 µM

O=C1/C(=C/c2ncc[nH]2)Oc2ccccc21 [Aurone 2026, (Z)-2-((1H-imidazol-2-yl)methylene)benzofuran-3(2H)-one]
IC50 ([1]; read-out: IC50 L. amaz.): < 1 µM
IC50 [2, 5]: 20.9 µM
IC50 [2, 6]: 20.9 µM
IC50 [2, 7]: 20.9 µM
IC50 [3, 8]: > 100 µM
IC50 [3, 9]: > 100 µM
selectivity for T. brucei (L6/Tb) [4]: > 6.22
IC50 [4, 10]: 16.1 µM
IC50 ([4]; read-out: T. brucei IC50 dose): 16.1 µM

COc1ccc(/C=C2\Oc3ccccc3C2=O)c(OC)c1OC [Aurone 2001]
IC50 ([1]; read-out: IC50 L. amaz.): 13.3 µM
IC50 [2, 5]: > 50 µM
IC50 [3, 8]: > 100 µM
IC50 [4, 10]: 22.4 µM

COc1ccc(/C=C2\Oc3ccccc3C2=O)cc1 [Aurone 6601, (Z)-2-(4-methoxybenzylidene)benzofuran-3(2H)-one]
IC50 ([1]; read-out: IC50 L. amaz.): 3.3 µM
Selectivity L6/La ([1]; Table 1): >30.30
Selectivity L6/La [1, 11]: >30.30
Selectivity L6/Tc [2, 12]: >9.28
Selectivity L6/Tc [2, 13]: >9.28
Selectivity L6/TC-I [2]: >9.28
IC50 [2, 5]: 10.8 µM
IC50 [2, 6]: 10.8 µM
IC50 [2, 14]: 10.8 µM
IC50 [3, 8]: > 100 µM
IC50 [3, 15]: > 100 µM
IC50 [3, 16]: > 100 µM
Selectivity L6/Tb ([4]; Table 1): >2.48
Selectivity L6/Tb [4, 17]: >2.48
Selectivity L6/Tb [4, 18]: >2.48
IC50 [4, 10]: 40.3 µM

O=C1/C(=C/c2ccc(Br)cc2)Oc2c1ccc(O)c2O [Aurone 1005, (Z)-2-(4-bromobenzylidene)-6,7-dihydroxybenzofuran-3(2H)-one]
IC50 ([1]; read-out: IC50 L. amaz.): 31.1 µM
IC50 [2, 5]: > 50 µM
IC50 [3, 8]: > 100 µM
IC50 [4, 10]: 48 µM

O=C1/C(=C/c2ccc(Cl)cc2)Oc2ccccc21 [Aurone 9019, (Z)-2-(4-chlorobenzylidene)benzofuran-3(2H)-one]
IC50 ([1]; read-out: IC50 L. amaz.): 41.5 µM
Selectivity L6/La ([1]; Table 1): >2.41
Selectivity L6/La [1, 11]: >2.41
Selectivity L6/Tc [2, 12]: >18.08
Selectivity L6/Tc [2, 13]: >18.08
Selectivity L6/TC-I [2]: >18.08
IC50 [2, 5]: 5.53 µM
IC50 [2, 6]: 5.53 µM
IC50 [2, 14]: 5.53 µM
IC50 [3, 8]: > 100 µM
IC50 [3, 15]: > 100 µM
IC50 [3, 16]: > 100 µM
Selectivity L6/Tb ([4]; Table 1): >2.88
Selectivity L6/Tb [4, 17]: >2.88
Selectivity L6/Tb [4, 18]: >2.88
IC50 [4, 10]: 34.7 µM

COC(=O)c1ccc(/C=C2\Oc3ccccc3C2=O)cc1 [Aurone 13, Methyl (Z)-4-((3-oxobenzofuran-2(3H)-ylidene)methyl)benzoate]
activity against T. cruzi [2]: no activity
activity against T. brucei [4]: no activity
